In PMC9436958, “The synthesis of novel thioderivative chalcones and their influence on NF-κB, STAT3 and NRF2 signaling pathways in colorectal cancer cells” (Scientific Reports, 2022):

Assays:
AKT = system: AKT; set-up: method as in BinidngDB; details: inhibitor of PDB ID 4GV1; ref BinidngDB; cited from earlier work
EGFR [1] = system: EGFR; set-up: method as in BinidngDB; details: inhibitor of PDB ID 5UGB; ref BinidngDB; cited from earlier work
DLD-1 cells = experiment: MTT viability assay, DLD-1 cells; assay type: cell-based; details: Homo sapiens, range 0.5–100 µM, read-out: IC50, cytotoxicity
Procedure: (§1) The DLD-1 and HCT116 colorectal carcinoma cell lines were purchased from ECACC. The HaCaT cell line of spontaneously immortalized keratinocytes was purchased from Cell Lines Service (Germany). The cells were cultured in Dulbecco’s Modified Eagle’s Medium (DMEM, Sigma-Aldrich, USA) with the addition of 10% FBS (EURx, Poland) and 1% antibiotic solution (penicillin and streptomycin) (Sigma-Aldrich, USA) at 37 °C in an atmosphere with 95% humidity and 5% CO2.
(§2) The effect of the tested compounds on the viability of DLD-1, HCT116 and HaCaT cells was assessed by the MTT assay according to the standard protocol.

HCT116 cells = experiment: MTT viability assay, HCT116 cells; assay type: cell-based; details: Homo sapiens, HCT-116, range 0.5–100 µM, read-out: IC50, cytotoxicity
Procedure: as §1, §2

[2] = MTT viability assay, normal HaCaT cells; assay type: cell-based; details: HaCaT cells (spontaneously immortalized keratinocytes), normal human HaCaT cells, read-out: IC50, cytotoxicity
Procedure: as §1, §2

NF-κB p65 [3] = experiment: Transcription factor ELISA, NF-κB p65 binding to DNA; assay type: cell-based; details: DLD-1 cells (context); 1, 4 at 1 μM; 2, 8 at 5 μM; vs control
Procedure: (§3) To estimate NF-ΚB (p50 and p65 subunits) STAT3 and Nrf2 activation, enzymatic immunoassays with the Transcription Factor ELISA Kit (TransAM™NF-κB, TransAM™STAT3/TransAM™Nrf2, Active Motif, Carlsbad CA, USA) were used following the manufacturer’s protocol. Briefly, proper consensus-site double-strand oligonucleotides (NF-κB—5′-GGGACTTTCC-3′; STAT3-5’—TTCCCGGAA-3’; Nrf2-5ʹ—[…]-3ʹ) were immobilized on an ELISA plate and incubated for one hour with the nuclear extracts. The activated subunits bound to DNA were recognized with a specific primary antibody and detected with an HRP-conjugated secondary antibody. The number of subunits was determined by spectrophotometry at λ = 450 nm. The number of p50, and p65 subunits, STAT3, as well as the amount of Nrf2 contained in the DNA-binding complex, corresponded to the activated NF-κB, STAT3, or Nrf2 transcription factors.

Nrf2 = experiment: Transcription factor ELISA, Nrf2 binding to DNA; assay type: cell-based
Procedure: as §3

NF-κB p65 [4] = experiment: qRT-PCR, NF-κB p65 mRNA; assay type: cell-based; details: for inhibitory effect on p65 subunit transcription: DLD-1 cells, 5 μM
Procedure: (§4) Total RNA from cells was isolated with the GeneMatrix Universal DNA/RNA/Protein Purification Kit (EurX, Poland). For the qRT-PCR analyses, the Maxima SYBR Green I/ROX qPCR Master Mix (2×) (Thermo Fisher Scientific, USA) and the thermal cycler LightCycler (Roche, Germany) were used. The protocol started with 5 min of enzyme activation at 95 °C, followed by 40–50 cycles at 95 °C for 15 s, 56 °C for 20 s, 72 °C for 40 s, and final elongation at 72 °C for 5 min. Melting curve analysis was used for amplicon verification. The expression levels of TATA-box-binding protein (TBP) and porphobilinogen deaminase (PBGD) were used to normalize the data. The Pfaffl comparative method was used to calculate fold change. Primers were designed using Beacon Designer software (the sequences of primers used to analyze genes are listed in Table 2 of the supplementary materials).

COX-2 = COX-2 expression (qRT-PCR mRNA, Western blot protein); assay type: cell-based; details: 4 at 1 μM; for COX-2 transcription: DLD-1 cells, 3, 6 at 5 μM
Procedure: (§5) Cytosolic and nuclear extracts were prepared using a Nuclear/Cytosol Fractionation Kit (BioVision Research, USA). Cytosolic extracts (for NF-κBp65, NF-κBp50, COX-2, iNOS, STAT3, c-Myc, Bcl-xl, Nrf2, SOD, GSTP, EGFR, Akt, p-Akt, Keap1, IKKα/β and β-actin) or nuclear extracts (for NF-κBp65, NF-κBp50, STAT3, p-STAT3, Nrf2, p-Nrf2 and lamin) were separated on 7.5%, 10% or 12% SDS–PAGE slab gels. Then, the proteins were transferred to a nitrocellulose Immobilon-P membrane. After blocking for 2 h with 10% skimmed milk, proteins were incubated with primary antibodies against NF-κBp65, NF-κBp50, COX-2, iNOS, STAT3, p-STAT3, c-Myc, Bcl-xl, Nrf2, p-Nrf2, SOD, GSTP, EGFR, Akt, p-Akt, Keap1, IKKα/β, β-actin, and lamin. Alkaline phosphatase (AP)-labeled anti-rabbit IgG, anti-goat IgG, and anti-mouse IgG secondary antibodies (Bio-Rad Laboratories, USA), as well as horseradish peroxidase (HRP)-conjugated anti-mouse IgG (Boster Bio, USA) secondary antibodies were used in the staining reaction. Bands were visualized by the AP Conjugate Substrate Kit NBT/BCIP or the chemiluminescent HRP substrate of the Clarity ECL Kit (Bio–Rad Laboratories, USA). The amount of immunoreactive product in each lane was determined using a ChemiDoc Imaging System (Bio–Rad Laboratories, USA). Values were calculated as relative absorbance units (RQ) per mg of protein and expressed as a percentage of the control.
as §4

STAT3 [5] = experiment: Western blot, STAT3 protein level; assay type: cell-based; details: DLD-1 cells; 2 at 5 μM, 4 at 1 μM
Procedure: as §5

STAT3 [6] = experiment: Transcription factor ELISA, STAT3 binding to DNA; assay type: cell-based; details: 2, 5 at 5 μM, 4 at 1 μM
Procedure: as §3

STAT3 [7] = experiment: qRT-PCR, STAT3 mRNA; assay type: cell-based; details: DLD-1 cells; 2, 5 at 5 μM, 4 at 1 μM
Procedure: as §4

Bcl-xl = Bcl-xl expression (qRT-PCR mRNA, Western blot protein); assay type: cell-based; details: DLD-1 cells; 2 at 5 μM
Procedure: as §5, §4

c-Myc = c-Myc expression (qRT-PCR mRNA, Western blot protein); assay type: cell-based; details: DLD-1 cells; 2 at 5 μM
Procedure: as §5, with “control. […]” for “control.”

EGFR [8] = experiment: Western blot, EGFR protein in cytosolic fraction; assay type: cell-based; details: DLD-1 cells; 2, 5 at 5 μM, 4 at 1 μM
Procedure: as §5

p-Akt = experiment: Western blot, p-Akt (Ser 473) protein in cytosolic fraction; assay type: cell-based; details: 2, 5 at 5 μM, 4 at 1 μM
Procedure: as §5

p-Nrf2 = experiment: Western blot, p-Nrf2 protein in nuclear fraction; assay type: cell-based; details: HCT116 line; 5 μM
Procedure: as §5

SOD = SOD expression (qRT-PCR mRNA, Western blot protein); assay type: cell-based; details: HCT116 cells; 5 μM
Procedure: as §5
as §4, with “Primers were designed using Beacon Designer software (the sequences of primers used to analyze genes are listed in Table 2 of the supplementary materials).” left out

NF-κB p50 = experiment: Transcription factor ELISA, NF-κB p50 binding to DNA; assay type: cell-based; details: DLD-1 cells; 1, 4 at 1 μM; 2, 3, 5-8 at 5 μM; in relation to the control group
Procedure: as §3

[9] = DLD-1 cells, 1 at 1 μM, 3, 5, 7, 8 at 5 μM
[10] = HCT116 cells, 4 at 1 μM, 2, 5, 6, 7 at 5 μM

Compound	IC50 (DLD-1 cells)	IC50 (HCT116 cells)	IC50 [2]	reduction of the binding of the p65 subunit to DNA (NF-κB p65 [3])	Nrf2 binding to a specific nucleotide sequence (ELISA) (Nrf2; [9])	Nrf2 binding to a specific nucleotide sequence (ELISA) (Nrf2; [10])	also measured
NC1(C(=O)N[C@@H](CCO)c2ccc(Cl)cc2)CCN(c2ncnc3[nH]ccc23)CC1 [AZD5363]	–	–	–	–	–	–	IC50 (AKT): 0.0042 µM
COc1ccc(/C=C/C(=O)c2cc(OC)c(OC)c(OC)c2)cc1SC [chalcone 1]	3 µM	19 µM	4 µM	21%	statistically significant increase	–	–
COc1cc(/C=C/C(=O)c2cc(Br)c(OC)c(OC)c2)ccc1SC [chalcone 2]	11 µM	18 µM	13 µM	24%	–	statistically significant increase	inhibitory effect on p65 subunit transcription (NF-κB p65 [4]): most potent inhibitory effect; COX-2 expression, protein level (COX-2; HCT116 cells, 2 at 5 μM): reduction of COX-2 expression; COX-2 expression, transcript level (COX-2; HCT116 cells, 2 at 5 μM): reduction of COX-2 expression; decrease in the nuclear level of STAT3 protein (STAT3 [5]): 22%; binding of STAT3 to DNA (STAT3 [6]; HCT116 cells): decreased the binding of STAT3 to DNA; decrease in the binding of STAT3 to DNA (STAT3 [6]; nuclear fraction of DLD-1 cells): 25%; STAT3 gene expression (mRNA) (STAT3 [7]): decreased; Bcl-xl protein level (Bcl-xl): reduced level of the Bcl-xl protein; decrease in the level of Bcl-xl mRNA (Bcl-xl): 25%; c-Myc expression (c-Myc): decreased c-Myc expression; level of EGFR (EGFR [8]): significantly decreased the level of EGFR; phosphorylation of p-Akt (Ser 473) (p-Akt; DLD-1 cells): significantly reduced phosphorylation of p-Akt; phosphorylation of p-Akt (Ser 473) (p-Akt; HCT116 cells): significantly reduced phosphorylation of p-Akt
COc1ccc(/C=C/C(=O)c2cc(Br)c(OC)c(OC)c2)cc1SC [chalcone 3]	8 µM	17 µM	9 µM	–	statistically significant increase	–	COX-2 transcription (COX-2): statistically significant reduction
COc1ccc(/C=C/C(=O)c2cc(Br)c(SC)c(OC)c2)cc1SC [chalcone 6]	12 µM	21 µM	13 µM	–	–	statistically significant increase	COX-2 transcription (COX-2): statistically significant reduction; increase in the nuclear level of p-Nrf2 (p-Nrf2): 52%; levels of SOD mRNA and protein (SOD): increased levels of SOD mRNA and protein
COc1cc(C(=O)/C=C/c2ccc(SC)cc2)cc(Br)c1SC [chalcone 7]	43 µM	19 µM	27 µM	–	statistically significant increase	statistically significant increase	decrease of p50 binding to the 5'-GGGACTTTCC-3' target sequence (NF-κB p50): 41%; inhibitory effect on p65 subunit transcription (NF-κB p65 [4]): most potent inhibitory effect; increase in the nuclear level of p-Nrf2 (p-Nrf2): 80%; levels of SOD mRNA and protein (SOD): increased levels of SOD mRNA and protein
COc1ccc(/C=C/C(=O)c2cc(OC)c(SC)c(OC)c2)cc1SC [chalcone 8]	9 µM	19 µM	17 µM	38%	statistically significant increase	–	decrease of p65 transcription (NF-κB p65 [4]; HCT116 cells, 8 at 5 μM, compared to the control group): 30%
